# Entries after “also recorded” stand apart in the source; their conditions may differ. Non-standard residues stand in square brackets, D forms with d. Residues, ends and D or L forms follow the SMILES beside them. Hyp = O=C(O)[C@@H]1C[C@@H](O)CN1; Ahx = NCCCCCC(=O)O
# What was measured:
# Panc-1 cells [1] = assay: Flow cytometry, entry of FITC-labeled peptides into cells; format: cell-based; settings: conclusion from flow cytometry of FITC-labeled peptides in pancreatic cancer cells
# Description: (§1) To examine whether PRTC could permeate into pancreatic cancer cells, we synthesized fluorescein isothiocyanate (FITC) labeled PRTC, PRTC-m, PRTC-v, PRTC-r (PRTC without RRRRK) as well as TAT (a widely used cell penetrating peptide, as a positive control).
# (§2) Figure 3 Identification of the permeability of PRTC in Panc-1 cells. (A) Entry of FITC- labeled peptides into Panc-1 cells tested by flow cytometry. FITC-TAT is the positive control. Measurements were performed in triplicate. (B) Quantification of cellular uptake of Panc-1 cells treated with different concentrations of FITC-PRTC. (C) Confocal microscope images of Panc-1 cells treated with 10 μM FITC labeled peptides. Scale bars, 10 μm. (D) Confocal microscope images of Panc-1 cells treated with different dosages of FITC-PRTC. Scale bars, 10 μm.
# Panc-1 cells [2] = assay: Confocal fluorescence imaging of FITC labeled peptides in cells; format: cell-based; settings: flow cytometry and confocal imaging of FITC-labeled PRTC; Panc-1, AsPc-1, MIA PaCa-2 cells
# Description: as §1, §2
# [3] = molecular target: T1, endogenous CREPT protein in Panc-1 cells (Homo sapiens, UniProt Q9NQG5); assay: Western blot of endogenous CREPT (degradation); format: cell-based
# T1 construct: endogenous protein level of CREPT in Panc-1, AsPc-1 and MIA-PaCa-2 cells; endogenous in cells; host or cells: Panc-1, AsPc-1, MIA PaCa-2
# T1 sequence (Q9NQG5 1-326): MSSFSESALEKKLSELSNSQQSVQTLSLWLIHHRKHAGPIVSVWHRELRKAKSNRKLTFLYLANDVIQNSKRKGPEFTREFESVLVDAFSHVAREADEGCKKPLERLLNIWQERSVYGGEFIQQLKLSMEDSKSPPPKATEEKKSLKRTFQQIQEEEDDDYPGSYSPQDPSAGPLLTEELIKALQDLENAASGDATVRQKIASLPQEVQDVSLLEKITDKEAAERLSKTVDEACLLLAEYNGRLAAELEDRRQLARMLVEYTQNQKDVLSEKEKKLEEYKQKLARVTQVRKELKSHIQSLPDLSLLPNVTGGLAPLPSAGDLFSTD
# Description: (§3) For exogenous immunoprecipitation assays, HEK293T cells were plated in 60 mm dishes and then transfected with the indicated plasmids. After 24 h, cells were harvested using RIPA buffer (50 mM Tris-HCl pH 8.0, 2 mM EDTA pH 8.0, 150 mM NaCl, 1% NP-40, 0.5% sodium deoxycholate, 0.1% SDS) with mixed protease inhibitors. Cell lysates were incubated with 2 μg of the indicated antibodies and 30 μL of protein A/G-Sepharose beads at 4 °C overnight. Beads were eluted five times with lysis buffer (50 mM Tris-HCl pH 7.6, 1 mM EDTA pH 8.0, 165 mM NaCl, 0.5% NP-40), and thereafter, a western blot assay was performed to analyze the association by using the indicated antibodies. Western blot was performed as previously reported. Anti-β-actin and anti-Flag antibodies were purchased from Sigma. Anti-Myc antibody was purchased from Santa Cruz Biotechnology. Antibody against CREPT was produced in the laboratory.
# (§4) To address whether PRTC could induce CREPT degradation, we examined the endogenous protein level of CREPT in Panc-1, AsPc-1 and MIA-PaCa-2 cells in the presence of different dosages of PRTC. […] Consistently, treatment with PRTC led to decreases in CREPT protein at different times (Figure 5B, S3A). […] To further visualize the degradation process, we stained the endogenous CREPT protein with an antibody against CREPT in the cells treated with FITC-labeled PRTC.
# Figure 5 PRTC induces the ubiquitination and proteasome- dependent degradation of the endogenous CREPT protein. (A) Immunoblot of CREPT following 24 h incubation with different dosages of PRTC or PRTC-m in Panc-1 cells. (B) Immunoblot of CREPT exposed to 10 μM PRTC or PRTC-m for different times in Panc-1 cells. (C) Western blot analysis of CREPT following 24 h incubation with 10 μM PTRC in Panc-1 cells. MG132 is an inhibitor of proteasome activity. (D) Immunofluorescence visualization of Panc-1 cells after treatment with PRTC for 24 h. Cells were stained with anti-CREPT antibody. Scale bars, 20 μm.
# [4] = molecular target: T2, endogenous CREPT protein in AsPc-1 cells (Homo sapiens, UniProt Q9NQG5); assay: Western blot of endogenous CREPT (degradation); format: cell-based; settings: 24 h incubation
# T2 construct: endogenous protein level of CREPT in Panc-1, AsPc-1 and MIA-PaCa-2 cells; endogenous in cells; host or cells: Panc-1, AsPc-1, MIA PaCa-2
# T2 sequence (Q9NQG5 1-326): T1 sequence (Q9NQG5 1-326)
# Description: as §3, §4
# Figure S3. PRTC induces CREPT degradation. […]
# HPDE6-C7 cells = assay: Cell proliferation assay; format: cell-based; settings: little CREPT expression
# Description: Cells were seeded into 96-well plates (1000 cells per well) and cultured for the indicated times. Cell viability was evaluated using a CCK-8 kit (Solarbio, Beijing, China). The value of OD450 was calculated by spectrophotometer and presented as the mean ± standard deviation (SD) from three individual experiments. […]
# (H) Cell proliferation assay of
# HPDE6-C7 cells. […] HPDE6-C7
# is anormal pancreatic epithelial cell line.
# (1 picture or pasted object on this page, not shown here)
# Panc-1 cells [5] = assay: Wound healing; format: cell-based; settings: 10 μM for 24 h, FBS-free DMEM
# Description: Cells were seeded in 6-well plates. Monolayer cells were scratched after culturing to obtain at least 95% confluence. Cells were washed with PBS and maintained in FBS-free DMEM and then treated with 10 μM PRTC and PRTC-m for 24 h. Migration distance was observed by microscopy and was measured by ImageJ from three individual experiments.
# Panc-1 xenograft tumors = assay: Xenograft tumor model; format: in vivo; settings: female Balb/c nude mice, 10 mg/kg intraperitoneal every 2 days for 4 weeks, n=5, in comparison with control mice
# Description: (§5) For the xenograft model, 5×10^6 wild-type Panc-1 cells or CREPT knockout Panc-1 cells were subcutaneously injected into 4-week-old female Balb/c nude mice, which were purchased from Beijing Vital River Laboratory Animal Technology Co., Ltd. Each experimental group consisted of five mice. Mice bearing tumors were randomly divided into two groups and administered via intraperitoneal injection control solvent (0.9% saline) or PRTC (dissolved in 0.9% saline, 10 mg/kg) every 2 days for 4 weeks. The body weight of mice were measured every week after treated with 0.9% saline or PRTC. Tumor volume was measured by using the formula V = (a × b^2)/2 (V is volume, a is the length of the tumor, b is the width of the tumor).
# [6] = Body weight and toxicity in mice bearing xenograft tumors; format: in vivo, Balb/c nude mice; settings: 10 mg/kg intraperitoneal, and HPDE6-C7 cells
# Description: as §5
smiles,measurement,setting,value
CC[C@H](C)[C@H](N)C(=O)N[C@@H](Cc1ccc(O)cc1)C(=O)N1C[C@H](O)C[C@H]1C(=O)N[C@@H](C)C(=O)N[C@@H](CC(C)C)C(=O)NCCCCCC(=O)N[C@@H](CCCCN)C(=O)N[C@@H](CC(=O)O)C(=O)N[C@H](C(=O)N[C@@H](CC(C)C)C(=O)N[C@@H](CO)C(=O)N[C@@H](CCC(=O)O)C(=O)N[C@@H](CCCCN)C(=O)N[C@@H](CCC(=O)O)C(=O)N[C@@H](CCCCN)C(=O)N[C@@H](CCCCN)C(=O)N[C@@H](CC(C)C)C(=O)N[C@@H](CCC(=O)O)C(=O)N[C@@H](CCC(=O)O)C(=O)N[C@@H](Cc1ccc(O)cc1)C(=O)N[C@@H](CCCCN)C(=O)N[C@@H](CCC(N)=O)C(=O)N[C@@H](CCCCN)C(=O)N[C@@H](CC(C)C)C(=O)N[C@@H](C)C(=O)N[C@@H](CCCNC(=N)N)C(=O)N[C@H](C(=O)N[C@@H](CCCNC(=N)N)C(=O)N[C@@H](CCCNC(=N)N)C(=O)N[C@@H](CCCNC(=N)N)C(=O)N[C@@H](CCCNC(=N)N)C(=O)N[C@@H](CCCCN)C(=O)O)C(C)C)C(C)C [PRTC] (H-IY[Hyp]AL[Ahx]KDVLSEKEKKLEEYKQKLARVRRRRK-OH; N-terminus and C-terminus assumed),cell permeability,Panc-1 cells [1],strong cell permeability
same,time to permeate into pancreatic cancer cells,Panc-1 cells [2],≤ 2 h
same,CREPT protein level at different times,[3]; 10 μM or 20 μM peptide,decreases
same,CREPT protein level upon different dosages,[3]; 24 h incubation,dramatically decreased
same,CREPT protein level upon different dosages,[4],dramatically decreased
same,cell proliferation of a normal pancreatic epithelial cell line,HPDE6-C7 cells,failed to influence; also recorded: failed to inhibit
same,cell movement (wound healing),Panc-1 cells [5],decreased cell movement
same,tumor weight and size,Panc-1 xenograft tumors,significantly decreases
same,toxicity,[6],relatively low; also recorded: no toxicity
